Experimental data as given in patent publication US20080226596A1, “Therapeutic compositions and methods useful in treating hepatitis” (priority 2006, published 2008).
Entries after “also recorded” stand apart in the source; their conditions may differ.

Legend:
Assay type in all cases: biochemical
SHP-1 = molecular target: T1, SHP-1 (Mus musculus, UniProt P29351); test: In vitro PTPase assay, recombinant GST/SHP-1; conditions: for inhibitory activity against SHP-1: 3-4 μg/ml or 10-100 μg/ml
T1 construct: made in house
T1 sequence (P29351 whole entry): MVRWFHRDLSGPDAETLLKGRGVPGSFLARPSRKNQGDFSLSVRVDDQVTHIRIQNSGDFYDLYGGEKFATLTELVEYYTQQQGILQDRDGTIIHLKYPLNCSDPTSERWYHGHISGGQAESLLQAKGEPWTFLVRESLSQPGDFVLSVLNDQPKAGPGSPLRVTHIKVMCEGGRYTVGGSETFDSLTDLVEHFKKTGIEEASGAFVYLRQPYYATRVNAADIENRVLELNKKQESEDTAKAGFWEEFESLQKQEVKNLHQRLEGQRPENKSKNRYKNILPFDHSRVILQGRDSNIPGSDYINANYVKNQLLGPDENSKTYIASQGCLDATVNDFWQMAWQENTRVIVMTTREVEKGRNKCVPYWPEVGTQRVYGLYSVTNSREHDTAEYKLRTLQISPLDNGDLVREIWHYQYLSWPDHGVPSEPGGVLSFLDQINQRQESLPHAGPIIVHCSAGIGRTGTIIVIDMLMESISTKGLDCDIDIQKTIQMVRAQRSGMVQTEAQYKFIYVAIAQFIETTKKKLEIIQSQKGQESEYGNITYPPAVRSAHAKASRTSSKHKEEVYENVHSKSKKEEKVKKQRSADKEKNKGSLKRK
Procedure: In vitro PTPase activities were measured using the commercial protein tyrosine phosphatase assay kit (Upstate Biotechnology, Inc. (“UBI”)) following established procedure known to one of skill in the art. This assay measures the in vitro dephosphorylation of a synthetic phosphotyrosine peptide of the sequence Arg-Arg-Leu-Ile-Glu-Asp-Ala-Gle-Tyr-Ala-Ala-Arg-Gly, wherein the tyrosine is phosphorylated (SEQ ID NO: 3). Briefly, 0.01 µg of GST/PTPase fusion proteins was incubated in 50 μL of Tris buffer (10 mM Tris, pH 7.4) containing different concentrations of inhibitors or chemicals (0-1,000 μg/ml) at 22° C. for 10 minutes, followed by addition of 0.2 mM of the phosphotyrosine peptide and incubation at 22° C. for 18 hours. 100 μL of Malachite Green solution was added and incubated for 5 minutes, and the absorbance at 660 nm was measured after 5 minutes.
In vitro PTPase assays were used to determine the effects of compounds on recombinant PTPases, following established procedures using a synthetic phosphotyrosine peptide or DiFMUP as the substrate (Pathak et al., J. Imumol. 167, 3391 (2001)). Briefly, individual PTPases (0.1 µg/reaction) in 50 μL of PTPase buffer (50 mM Tris, pH 7.4) were incubated at 22° C. for 10 minutes or as indicated in the absence or presence of inhibitory compounds. Substrates (0.2 mM phosphotyrosine peptide) were then added and allowed to react at 22° C. for 18 hrs. PTPase activity of individual reactions was measured by adding 100 µL of malachite green solution (UBI) and then quantifying the amounts of free phosphate cleaved by the PTPase from the peptide substrate by spectrometry (OD660 nm). PTPase assays using DiFMUP as a substrate were conducted following a previously described procedure (Matter, et al., Biochem. Biophys. Res. Comm. 283, 1061 (2001)). Relative PTPase activities were calculated based on the formula: (PTPase activity in the presence of an inhibitory compound/PTPase activity in the absence of the compound)× 100%. To assess the reversibility of PTPase inhibition, GST fusion proteins of the PTPases bound on glutathione beads (Pharmacia) were pre-incubated with cold Tris buffer (50 mM Tris, pH 7.0) or Tris buffer containing the inhibitor at 4° C. for 30 minutes. The beads were then washed three times in cold Tris buffer or not washed prior to subjecting to in vitro PTPase assays.
(§1) In vitro PTPase assays were used to determine the effects of levamisole (Sigma), pentamidine (American Pharmaceutical Partners, Inc.), and ketoconazole (Sigma) on recombinant PTPases, following established procedures (Pathak et al., J. Imumol. 167, 3391 (2001); Pathak et al., Leukemia 16, 2285 (2002), Yi et al., J. Immunol. 169, 5978 (2002)) using a synthetic phosphotyrosine peptide or DiFMUP as the substrate as detailed above in section I.A.2.

PRL-1 = molecular target: T2, PRL-1 (Homo sapiens, UniProt Q93096); test: In vitro PTPase assay, recombinant PRL-1; conditions: 0.1-100 μg/ml
T2 construct: GST (N); made in house; host or cells: DHSa (DH5a) bacteria
T2 sequence (Q93096 whole entry): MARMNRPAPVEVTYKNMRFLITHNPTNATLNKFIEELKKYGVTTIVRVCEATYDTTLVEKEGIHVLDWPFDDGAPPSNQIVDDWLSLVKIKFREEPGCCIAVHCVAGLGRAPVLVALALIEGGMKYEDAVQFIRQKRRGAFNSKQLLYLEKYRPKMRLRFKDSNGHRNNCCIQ
Excerpt: (§2) Sodium stibogluconate, suramin, sodium orthovanadate and GST fusion protein of SHP-1 have been described previously (Pathak et al., J. Imumol. 167, 3391 (2001)). Meglumine antimonate was obtained from Aventis. cDNAs of human PRL-1, PRL-2 and PRL-3 coding region were derived by RT-PCR from H9 cells (Safai, et al., Lancet 1, 1438 (1984)) and inserted in frame into the pGEX vector. cDNA of PRL-1R86 was generated by recombinant DNA technique using PRL-1 cDNA as template following established procedures (Jiao, et al., Mol. Cell. Biol. 16, 6985 (1996)). […]
(§3) In vitro PTPase assays were used to determine the effects of compounds on recombinant PTPases, following established procedures using a synthetic phosphotyrosine peptide or DiFMUP as the substrate (Pathak et al., J. Imumol. 167, 3391 (2001)). […] PTPase activity of individual reactions was measured by adding 100 µL of malachite green solution (UBI) and then quantifying the amounts of free phosphate cleaved by the PTPase from the peptide substrate by spectrometry (OD660 nm). […] Relative PTPase activities were calculated based on the formula: (PTPase activity in the presence of an inhibitory compound/PTPase activity in the absence of the compound)× 100%. […]

PRL-2 = molecular target: T3, PRL-2 (Homo sapiens, UniProt Q12974); test: In vitro PTPase assay, recombinant PRL-2
T3 construct: GST (N); made in house; host or cells: DHSa (DH5a) bacteria
T3 sequence (Q12974 whole entry): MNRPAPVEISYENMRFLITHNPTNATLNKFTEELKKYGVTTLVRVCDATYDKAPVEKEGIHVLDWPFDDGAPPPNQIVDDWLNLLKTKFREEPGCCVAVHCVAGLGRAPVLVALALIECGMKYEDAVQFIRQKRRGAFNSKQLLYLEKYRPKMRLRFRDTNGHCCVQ
Excerpt: as §2, §3

GSTm8 = test: In vitro PTPase assay, GSTm8; conditions: 3-4 μg/ml or 10-100 μg/ml
Excerpt: as §1

| Structure (SMILES) | inhibitory activity against SHP-1 (SHP-1) | PRL-1 PTPase activity retained (PRL-1) | effect against PRL-2 (PRL-2) | inhibitory activity against GSTm8 (GSTm8) | SHP-1 phosphatase activity (SHP-1; 10 μg/ml) |
| --- | --- | --- | --- | --- | --- |
| CC(=O)N1CCN(c2ccc(OCC3COC(Cn4ccnc4)(c4ccc(Cl)cc4Cl)O3)cc2)CC1 (stereo not drawn) [ketoconazole] | no obvious inhibitory activity | 60-70% | not effective | no obvious inhibitory activity | – |
| N=C(N)c1ccc(OCCCCCOc2ccc(C(=N)N)cc2)cc1 [pentamidine] | no obvious inhibitory activity | 70-80% | not effective | no obvious inhibitory activity | – |
| O.O.O.O.O.O.O.O.O.O=C([O-])[C@@H]1[O][Sb]2([O-])([O][Sb]34([OH])[O][C@H]([C@H](O)CO)[C@H]([O]3)[C@H](C(=O)[O-])[O]4)[O][C@H]([C@H](O)CO)[C@@H]1[O]2.[Na+].[Na+].[Na+] [sodium stibogluconate] | – | – | – | – | almost completely inhibited; also recorded: inactivated SHP-1 |
